Test results as given in patent publication US8999293B2, “Animal model of anxiety and depression” (University of Mississippi, priority 2005, dated 2015).
Read-outs that look alike come from different tables or passages of the source.

Assays:
[1] = tested on: isolated cockerels (Gallus gallus; W36); experiment: Chick anxiety-depression model, drug probe studies, 120 min isolation (Example 3); conditions: for ED50: Gallus gallus; for isolation-induced DVoc rate during the anxiety-like phase (first five min time block) / isolation-induced DVoc rate during the depression-like phase (30-120 min) / sleep onset latency (SOL) to index sedation: IM fifteen minutes prior to testing; for isolation-induced DVoc rate during the anxiety-like phase (first five min time block) / isolation-induced DVoc rate during the depression-like phase (30-120 min): vs vehicle/isolated; for isolation-induced DVoc rate during the anxiety-like phase (first five min time block): attenuation = anxiolytic effect; for isolation-induced DVoc rate during the depression-like phase (30-120 min): increase = antidepressant effect; for sleep onset latency (SOL) to index sedation: vs vehicle/isolated chicks
Method: Subjects and Housing Procedures. Cockerels (Gallus gallus; W36; Cal-Maine Foods, Inc.; Mendenhall, Miss.) were received one-day posthatch and housed in 34×57×40 cm stainless steel cages with 12-13 chicks per cage. Food (Purina Start and Grow, St. Louis, Mo.) and water were available ad libitum through one quart gravity-fed feeders (Murray MacMurray; Model 4BGFJ) and waterers (Murray MacMurray; Model 4YQW0). Room temperature was maintained at 29±1° C. and overhead illumination was maintained on a 12 hr light-dark cycle. Daily maintenance, which was conducted during the first three hr of the light cycle, involved refilling the waterer, refilling the feeder, and replacement of tray liners.
Apparatus. The testing apparatus consisted of a six-unit test apparatus containing Plexiglas viewing chambers (25×25×22 cm) placed in sound-attenuating enclosures. Each unit was illuminated and heated by a 25-W light bulb. Ventilation was provided by an eight centimeter diameter rotary fan (Commonwealth Model FP-108AX 51). Miniature video cameras (SuperCircuit Model PC60XP) mounted in the sound-attenuating enclosures at floor level and routed through a Multiplexor (SuperCircuit Model PC47MC) provided televised display of the chicks for behavioral observation. Distress vocalizations (DVocs) were recorded by microphones (Lafayette Instruments Model 3-675-001) mounted in the ceilings of the Plexiglas chambers and connected to digital sound-activating relays (Lafayette Instruments Model 63040A; settings: 75% sensitivity and 0.10 s delay) that triggered electromechanical counters (Lafayette Instruments Model 58004).
Drug Probes. All experiments were conducted between five- and seven days posthatch. The groups in each experiment formed a 1×5 factorial design with a hanging control condition (n=9-12). The two vehicle control groups constituted the social separation stress manipulation. This manipulation involved placing a chick in the Plexiglas test chamber either in isolation or with two social companions for a 120 min test observation period. All drug probes were tested in the isolation condition.
Vehicle or a drug was administered IM fifteen minutes prior to testing. Dependent measures that were collected during the test session were DVocs to index separation stress and sleep onset latency (SOL) to index sedation. DVocs were defined as the vocalizations that are picked up by the electromechanical counters. SOL was defined as the time in which a chick adopts a sleep-like posture with either its chest in full contact with the floor and its eyes closed or its legs in a wide posture, its head drooping, and its eyes closed. Following each six-chick test session, the animals were returned to their home cage. After all animals were tested, they were euthanized via CO^2 asphyxiation.
Statistical Analyses. In order to discretely analyze the drug effects in the anxiety-like state and the depression-like state, the raw DVoc data were converted to a rate per min score. The anxiety-like state DVoc rate consisted of the mean DVocs per min over the first five min of the test session. The depression-like state DVoc rate consisted of the mean DVocs per min from 30 min to 120 min. Following this conversion, the DVoc rates from the anxiety-like phase and depression-like phase were analyzed with a one-way ANOVA with Fisher's LSD post hoc analysis. Plasma IL-6 concentration data were analyzed using one-way ANOVA with Fisher's LSD post hoc analysis and independent sample t-tests.

domestic fowl chicks = conditions: cited from earlier work; for detection of anxiolytic activity on separation-induced distress vocalizations: Feltenstein et al. 2004; for detection in the chick separation stress paradigm: Warnick et al. 2006, panic disorder vs generalized anxiety disorder drugs
[2] = tested on: isolated cockerels (Gallus gallus, strain W-36); type: in vivo; conditions: isolated chicks vs vehicle-isolated, chlordiazepoxide 8 mg/kg
Text: Subjects. Cockerels (Gallus gallus, strain W-36; Cal-Maine Foods, Mendenhall, Miss., USA) were obtained 1 day posthatch and housed in stainless steel cages (34×57×40 cm) at a population density of 12 chicks per cage. Food (Purina Start and Grow, St. Louis, Mo., USA) and water were available ad libitum through a 1-quart gravity-fed feeders and waterers.
Apparatus. […] The units were illuminated using 25-W light bulbs and ventilated by an 8-cmdiameter rotary fan. Miniature video cameras mounted at floor level in the corner of the enclosures allowed for animal observation. Microphones that mounted at the ceiling of the Plexiglas chamber were connected to digital sound-activating relays, which activated electromechanical counters. A white noise generator provided room masking noise.
Procedure. Tests were conducted at either Day 4, 5, or 6 posthatch. Groups formed a single factorial design with a hanging control that included two vehicle-control groups in which chicks were tested in either an isolated or social condition, and two drug groups under the isolation condition. The vehicle was 0.9% physiological saline and the drug probes were chlordiazepoxide (8 mg/kg) and imipramine (15 mg/kg). Sample sizes were n=12 per cell. […]
Statistics. Data were analyzed using one- and two-way repeated measures analysis of variance (ANOVA) and one-way simple effects ANOVA. […]

[3] = tested on: Black Australorp chicks (stress-vulnerable); experiment: Chick anxiety-depression model, 90 min isolation, Black Australorp strain (Example 5); conditions: data not shown
[4] = read-out: ED50 AD Effect (40-60 min time block)
[5] = read-out: ED50 AD Effect (60-80 min time block)
[6] = read-out: ED50 AD Effect (80-100 min time block)
[7] = read-out: ED50 AD Effect (100-120 min time block)

CNCCC(Oc1ccc(C(F)(F)F)cc1)c1ccccc1 (centres unmarked) [Fluoxetine, fluoxetine]
ED50 [1, 4]: 16.5 mg/kg | ED50 [1, 5]: 13.3 mg/kg | ED50 [1, 6]: 14 mg/kg | ED50 [1, 7]: 14 mg/kg | isolation-induced DVoc rate during the anxiety-like phase (first five min time block) [1]: none of the doses of fluoxetine attenuated DVocs | isolation-induced DVoc rate during the depression-like phase (30-120 min) [1]: significant exacerbation of the DVoc rate in the 1 mg/kg, 10 mg/kg and 20 mg/kg doses

CN(C)CCCN1c2ccccc2CCc2ccccc21 [Imipramine, imipramine]
ED50 [1, 4]: 10 mg/kg | ED50 [1, 5]: 8.5 mg/kg | ED50 [1, 6]: 9.1 mg/kg | ED50 [1, 7]: 7.6 mg/kg | isolation-induced DVoc rate during the anxiety-like phase (first five min time block) [1]: significant attenuation of the separation-induced DVoc rate at the 10 mg/kg and 15 mg/kg doses | isolation-induced DVoc rate during the depression-like phase (30-120 min) [1]: significant exacerbation of the DVoc rate in the 1 mg/kg, 3 mg/kg and 15 mg/kg doses (p^s<0.005) and a marginally significant exacerbation in the 10 mg/kg dose condition | detection of anxiolytic activity on separation-induced distress vocalizations (domestic fowl chicks): successful detection | detection in the chick separation stress paradigm (domestic fowl chicks): selectively detected | distress vocalizations (DVocs) at the first five minute time block ([2]; IP 15 minute before tests, imipramine 15 mg/kg): attenuated DVocs | DVoc rates at the 20 minute block and beyond ([2]; imipramine 15 mg/kg IP): enhanced DVoc rates

CNC1(c2ccccc2Cl)CCCCC1=O (centres unmarked) [Ketamine, ketamine]
antidepressant activity, follow-up study with ketamine at lower doses ([3]; Black Australorps): failed to see antidepressant activity in either strain | ataxia ([3]; highest dose tested, strain not specified): transient (5-10 min) ataxia

CNCCCC12CCC(c3ccccc31)c1ccccc12 [Maprotiline, maprotiline]
ED50 ([1]; read-out: ED50 AD Effect (20-40 min time block)): 17.2 mg/kg | ED50 [1, 4]: 14 mg/kg | ED50 [1, 5]: 14.9 mg/kg | ED50 [1, 6]: 13.6 mg/kg | ED50 [1, 7]: 14.6 mg/kg | isolation-induced DVoc rate during the anxiety-like phase (first five min time block) [1]: significant attenuation of the separation-induced DVoc rate at the 20 mg/kg dose | isolation-induced DVoc rate during the depression-like phase (30-120 min) [1]: the three lowest doses (2.5 mg/kg, 5 mg/kg, and 10 mg/kg) exacerbated DVocs

Cc1nnc2n1-c1ccc(Cl)cc1C(c1ccccc1)=NC2 [alprazolam]
detection in the chick separation stress paradigm (domestic fowl chicks): selectively detected

CC(N)Cc1ccccc1 (centres unmarked) [amphetamine]
detection of anxiolytic activity on separation-induced distress vocalizations (domestic fowl chicks): insensitive

O=C1CC2(CCCC2)CC(=O)N1CCCCN1CCN(c2ncccn2)CC1 [buspirone]
detection in the chick separation stress paradigm (domestic fowl chicks): insensitive

CNC1=Nc2ccc(Cl)cc2C(c2ccccc2)=[N+]([O-])C1 [chlordiazepoxide]
sleep onset latency (SOL) to index sedation [1]: significant SOL reduction in the 10 mg/kg dose

CN(C)CCCN1c2ccccc2Sc2ccc(Cl)cc21 [chlorpromazine]
detection of anxiolytic activity on separation-induced distress vocalizations (domestic fowl chicks): insensitive

Clc1cccc(Cl)c1N=C1NCCN1 [clonidine]
sleep onset latency (SOL) to index sedation [1]: significant SOL reduction in the 0.15 mg/kg and 0.20 mg/kg doses (p^s<0.05) and a marginally significant reduction in the 0.25 mg/kg dose | isolation-induced DVoc rate during the anxiety-like phase (first five min time block) [1]: significant attenuation of the separation-induced DVoc rate at all doses | isolation-induced DVoc rate during the depression-like phase (30-120 min) [1]: did not reveal a significant effect | detection of anxiolytic activity on separation-induced distress vocalizations (domestic fowl chicks): successful detection | detection in the chick separation stress paradigm (domestic fowl chicks): selectively detected

O=C(CCCN1CCC(O)(c2ccc(Cl)cc2)CC1)c1ccc(F)cc1 [haloperidol]
detection of anxiolytic activity on separation-induced distress vocalizations (domestic fowl chicks): insensitive

CCCC(C)(COC(N)=O)COC(N)=O [meprobamate]
detection of anxiolytic activity on separation-induced distress vocalizations (domestic fowl chicks): successful detection

CCCC(C)C1(CC)C(=O)NC(=O)NC1=O (centres unmarked) [pentobarbital]
detection of anxiolytic activity on separation-induced distress vocalizations (domestic fowl chicks): successful detection

NNCCc1ccccc1 [phenelzine]
detection in the chick separation stress paradigm (domestic fowl chicks): selectively detected

CN1[C@@H]2C[C@@H](OC(=O)[C@H](CO)c3ccccc3)C[C@H]1[C@@H]1O[C@@H]12 [scopolamine]
detection of anxiolytic activity on separation-induced distress vocalizations (domestic fowl chicks): insensitive

O=c1n(CCCN2CCN(c3cccc(Cl)c3)CC2)nc2ccccn12 [trazodone]
detection in the chick separation stress paradigm (domestic fowl chicks): insensitive
